Reference: patent US12448352B2, “Beta adrenergic agonist and methods of using the same” (Curasen Therapeutics, Inc., priority 2019, dated 2025)

Legend:
[1] = Dog pharmacokinetic study; assay type: in vivo, male Beagle dogs
Procedure: (§1) The rat pharmacokinetics studies of exemplary compounds 03-3, 03-5, and 03-115 were conducted with male SD rats. These rats were typically about 6-8 weeks old, weighing 200 g to 300 g. Animals were fasted overnight and free access to food 4 hours after dosing. A required volume of vehicle was added to reach the target concentration of the test article and vehicle component to prepare for the dosing. The dosing vehicle was PEG400 or 30% PEG400 in saline for IV, or 0.5% methylcellulose in water for PO. For IV dosing, the animals were administered intravenously via tail vein. For PO dosing, the animals were administered via oral gavage. After dosing, blood sample was collected (˜0.2 mL per time point) through jugular vein or heart puncture. Blood of each sample was transferred into plastic micro centrifuge tubes containing EDTA-K2. Collection tubes with blood samples and anticoagulant were inverted several times for proper mixing of the tube contents and then placed on wet ice. The blood samples were centrifuged at 2000 g for 5 minutes at 4° C. to obtain plasma which was stored in a freezer at −75±15° C. prior to analysis. Samples were analyzed using LC-MS/MS. WinNonlin were used for pharmacokinetic calculations.
Dog pharmacokinetics studies of exemplary compounds 03-3, 03-5, and 03-115 were conducted substantially similarly to the rat pharmacokinetic studies, instead using male Beagle dogs. Animals for PO studies were food fasted overnight prior to dosing and were fed approximately 2 hours after dosing. Animals for IV studies had free access to food and water. Blood samples were collected through venipuncture of peripheral veins except the dosing vein.

[2] = Mouse CNS exposure (plasma, CSF, brain); assay type: in vivo, male C57BL/6J mice; conditions: SC 1 mg/kg, 60 min
Procedure: as §1, with “These” for “The rat pharmacokinetics studies of exemplary compounds 03-3, 03-5, and 03-115 were conducted with male SD rats. These”
For CSF sampling, after anesthesia, the foramen magnum was exposed, and a syringe was used with a venoclysis needle to sample the CSF. The CSF samples were stored in polypropylene tubes, then stored in a freezer at −75±15° C. prior to analysis.
For brain sampling, the rats were fully exsanguinated by using a risen of carbon dioxide prior to brain collection. Brain samples were then collected at adopted time point, quick frozen and kept at −75±15° C. All brain samples were weighted and homogenated with PBS by brain weight (g) to PBS volume (mL) ratio 1:3 before analysis. The actual concentration is the detected value multiplied by the dilution factor.
These mice were typically about 6-8 weeks old, weighing 20 g to 30 g. Animals were free access to food before dosing. Sample amount was ˜0.03 mL per time point and sample site was dorsal metatarsal or heart puncture.

[3] = Plasma protein binding, equilibrium dialysis (rat); assay type: in vitro ADME; conditions: 1 μM, 6 hours dialysis
Procedure: Preparation of 100 mM sodium phosphate and 150 mM NaCl buffer (PBS). A basic solution was prepared by dissolving 14.2 g/L Na2HPO4 and 8.77 g/L NaCl in deionized water and the solution could be stored at 4° C. for up to 7 days. An acidic solution was prepared by dissolving 12.0 g/L NaH2PO4 and 8.77 g/L NaCl in deionized water and the solution could be stored at 4° C. for up to 7 days. The basic solution was titrated with the acidic solution to pH 7.4 and store at 4° C. for up to 7 days. pH was checked on the day of experiment and was adjusted if outside specification of 7.4±0.1.
Thawing of the frozen plasma (stored at −80° C.). Frozen plasma was thawed immediately at room temperature. The plasma was centrifuged at 3,220 g for 10 minutes to remove clots and supernatant was collected into a fresh tube. The pH of the plasma was checked and recorded. Note: a). Only use plasma that has been thawed no more than twice since arrival. b). Only use plasma within the range of pH 7 to pH 8.
Preparation of working solutions. The working solutions of test compound and control compound ketoconazole were prepared in DMSO at the concentration of 200 μM. And then 3 μL of working solutions was removed to mix with 597 μL of rat plasma to achieve a final concentration of 1 μM (0.5% DMSO). Plasma samples were vortexed thoroughly.
Preparation of dialysis membranes. […]

Structure (SMILES): Cc1ncccc1[C@@H](O)CNC(C)(C)C [Compound 03-115]
- AUCInf ([1]; PO 0.5 mg/kg): 132 ng·h/mL
- Cmax ([1]; PO 0.5 mg/kg): 72.3 ng/mL
- MRT ([1]; PO 0.5 mg/kg): 1.82 h
- Tmax ([1]; PO 0.5 mg/kg): 0.5 h
- AUCInf ([1]; PO 1.5 mg/kg): 537 ng·h/mL
- Cmax ([1]; PO 1.5 mg/kg): 387 ng/mL
- MRT ([1]; PO 1.5 mg/kg): 1.69 h
- Tmax ([1]; PO 1.5 mg/kg): 0.33 h
- Concentration, Brain [2]: 280 ng/g
- Concentration, CSF [2]: 157 ng/mL
- Concentration, Plasma [2]: 270 ng/mL
- PPB (rat), Percent of Unbound Fractions [3]: 97%
